In patent US20180015101A1, “COMPOSITIONS AND METHODS FOR ANTIGEN-SPECIFIC TOLERANCE” (INSERM (INSTITUT NATIONAL DE LA SANTÉ ET DE LA RECHERCHE …, priority 2014, published 2018):

How the values were obtained:
HO-1 [1] = test: HO-1 expression in MHC-II+ cells of draining lymph nodes after intradermal injection (FACS); format: in vivo, mice
Procedure: (§1) Isolation of murine APCs and co-culture with autoreactive CTLs: For MHC-II^+ and F4/80^+ cells isolation, skin-draining LNs were removed 24 hours after intradermal injection in the back or in the ear. Single-cell suspensions were prepared by enzymatic lymph node disaggregation with collagenase D (Sigma-Aldricht). Cells were stained with anti-MHC-II-FITC (clone AF6-120.1, BD pharmingen) or anti-F4/80-PE (clone BM8, eBioscience) monoclonal antibodies as primary labeling reagent and respectively with anti-FITC or anti-PE microbeads (Miltenyi) as secondary reagent. After magnetic separation, we checked that purity was >82% for CD11b^+CD11c^lowLy6C^highF4/80^+ cells in CoPP-OVA immunized mice. These cells were co-cultured with autoreactive CTLs (respectively 1:1 and 1:5 APC to CTL ratio) overnight for velocity measurement and transwell migration assay.
(§2) Intradermal immunization of mice and diabetes induction: Eight to ten week-old Rip-OVAhigh mice received two intradermal injections in the back with 70 μg of CoPP (Livchem) prepared as described and 20 μg of endofree ovalbumin (Hyglos) in 10 μl. One hundred and forty micrograms of MnPP (Livchem) prepared as described (18) was added to the preparation for HO-1-inhibition experiments. Forty micrograms of Alexa Fluor® 488 ovalbumin (Molecular Probes) has been used for phagocytosis assay. For diabetes induction, mice were injected i.v. the following day with 0.5×10^5 autoreactive cytotoxic OT-I CD8^+ T cells (purity >95%) previously co-cultured or not with MHC-II^+ or F4/80^+ cells during 4 hours.
(§3) Flow Cytometry: Single-cells suspensions of spleen and lymph nodes were stained with anti-CD8 (clone 53-6.7), anti-CD45.1 (clone A20), anti-CD49b/α2 (clone DX5), anti-CD49d/α4 (clone RI-2), anti-ITGAE/αE (clone M290), anti-CD29/β1-integrin (clone Ha2/5), anti-CD18/β2-integrin (clone C71/16), anti-CD61/β3-integrin (clone 2C9.G2), anti-CD62E (clone 10E9.6), anti-CD62L (clone Mel14), anti-PSGL1 (clone 2PH1), anti-ICAM-1 (clone 3E2), anti-VCAM-1 (clone 429), anti-CD183/CXCR3 (clone CXCR3-173), anti-CD195/CCR5 (clone C34-3448), anti-GITR (clone DTA-1), anti-PD-1 (clone J43), anti-CD28 (clone 37.51), anti-CD38 (clone 90), anti-CD69 (clone H1.2F3), anti-CD44 (clone IM7), anti-CD107b (clone ABL-93) antibodies. All antibodies are from BD Biosciences. Intracellular staining of HO-1 using BD cytofix/cytoperm kit following manufacturers' recommendations were performed with anti-HO-1 antibody (clone HO-1-2, abcam) as primary labeling reagent and with anti-anti-IgG1 (clone MOPC-21) monoclonal antibody conjugated to a fluorochrome as secondary labeling reagent.

Rip-OVA^high mice = test: Diabetes induction in Rip-OVAhigh mice by transfer of autoreactive CTLs after immunization; format: in vivo; conditions: intradermal injection one day before CTL transfer
Procedure: as §2, with “hours. […]” for “hours.”
Histological analysis: For evaluation of insulitis, pancreata were snap-frozen and cryosections (8 μm thick) were acetone-fixed. Sections were stained with H&E (Thermo Electron Corp.), and the degree of insulitis was evaluated microscopically.
Light-sheet-based fluorescent microscopy analysis: Animals were perfused with PFA 4% and washed with PBS. […] For GFP fluorescence imaging, we used a 525/50 band pass filter on the turret. […] The images stacks are analyzed using ImageJ software (Rasband, W. S., ImageJ, U. S. National Institutes of Health, Bethesda, Md., USA, http://imagej.nih.gov/ij/, 1997-2012).

[2] = test system: Human monocytic THP-1 cells; test: HO-1 expression in THP-1 cells after HO-1 inducer treatment; format: cell-based; conditions: 16 hours in vitro
Procedure: Human THP-1 monocytic cell line and co-culture with CD8^+ T cells clones: THP-I cells were cultured in RPMI 1640 (Gibco) supplemented with 10% fetal bovine serum (Eurobio), 1% glutamine (Gibco), 50 IU/mL penicillin 50 IU/mL streptomycin (Gibco) and 200 nM PMA (Sigma-Aldrich) under standard conditions as previously described (36).
as §3

C57BL/6 mice = test: Experimental Autoimmune Encephalomyelitis (EAE), prophylactic and curative intradermal treatment; format: in vivo; conditions: for protection against EAE (clinical score): i.d., low dose CoPP 0.2 mg/mouse, preventive or curative settings
Procedure: Experimental Autoimmune Encephalomyelitis (EAE) induction: Briefly, C57BL/6 were immunized by a subcutaneous injection of emulsified complete freund adjuvant (CFA, sigma aldrich) complemented with mycobacterium tuberculosis (400 μg, BD) and MOG35-55 peptide (200 μg, genecust). Pertussis toxin is injected (200 ng i.v, VWR) at the time of immunization and two days later. Clinical signs of EAE were evaluated daily and scored as follows: 0, normal; 1, limp tail; 2, partial paralysis of the hind limbs; 3, complete paralysis of the hind limbs; 4, hind-limb paralysis and forelimb weakness; 5, moribund or deceased
[…] Same injections were repeated twice at three days interval. For curative treatment, mice were treated with one injection in each ear at the EAE onset (i.e., mean clinical score, 0.72±0.1) with the same quantity than in prophylactic treatment. Same injections were repeated twice at three days interval after EAE onset.

NOD mice = conditions: administered systemically before disease onset; cited from earlier work
HO-1^+ MoDCs = test: MoDC recruitment in draining LN after intradermal injection; format: in vivo; conditions: given as dermal migration inhibitor in CoPP-injected mice
Procedure: as §1, with “assay. […]” for “assay.”

Human PBMC = test: HO-1 expression in human PBMC after in vitro hemin treatment; format: cell-based; conditions: 4 hours in vitro
Procedure: Human and non-human primate PBMC: Human PBMCs were obtained at the Etablissement Français du Sang in Nantes from blood of healthy donors. After Ficoll-Paque density gradient centrifugation (GE Healthcare), PBMC were cultured in RPMI 1640 (Gibco) supplemented with 10% fetal bovine serum (Eurobio), 1% glutamine (Gibco), 50 IU/mL penicillin 50 IU/mL streptomycin (Gibco) in presence or not of CoPP or hemin during 4 hours.
as §3, with “Intracellular staining of HO-1 using BD cytofix/cytoperm kit following manufacturers' recommendations were performed with anti-HO-1 antibody (clone HO-1-2, abcam) as primary labeling reagent and with anti-anti-IgG1 (clone MOPC-21) monoclonal antibody conjugated to a fluorochrome as secondary labeling reagent.” left out

HO-1 [3] = test: HO-1 induction in lymph nodes of baboons after intradermal Normosang; format: in vivo, Baboons (Papio anubis); conditions: 24 h after intradermal 6.25, 12.5 or 25 mg
Procedure: Non-Human primates: Baboons (Papio anubis, from the CNRS Primatology Center, Rousset, France) were negative for all quarantine tests. Animals were housed at the large animal facility of our laboratory following the recommendations of the Institutional Ethical Guidelines of the Institut National de la Santé Et de la Recherche Médicale, France. All experiments were performed under general anaesthesia with Zoletil (Virbac, Carron, France). Three Baboons were injected intradermally in the inguinal fold with respectively 6.25 mg (500 μL), 12.5 mg (500 μL) or 25 mg (1 mL) of clinical hemin (Normosang®). A non-treated baboon has served as control. Inguinal lymph nodes were surgically removed 24 hours after intradermal injection. Single-cell suspensions for flow cytometry analysis were prepared by enzymatic lymph node disaggregation with Collagenase D (Sigma-Aldricht).
Intradermal immunization with Normosang®: Three Baboons were injected intradermally in the inguinal fold with respectively 6.25 mg (500 μL), 12.5 mg (500 μL) or 25 mg (1 mL) of clinical hemin (Normosang®). A non-treated baboon has served as control.
Inguinal lymph nodes were surgically removed 24 hours after intradermal injection. Single-cell suspensions for flow cytometry analysis were prepared by enzymatic lymph node disaggregation with Collagenase D (Sigma-Aldricht). […]

[4] = after CoPP intradermal injection

| Compound | diabetes development (Rip-OVA^high mice) | HO-1 expression in THP-1 cells [2] | protection against EAE (clinical score) (C57BL/6 mice) | effect on T1D (NOD mice) | also measured |
| --- | --- | --- | --- | --- | --- |
| C=CC1=C(C)c2cc3[n-]c(cc4nc(cc5[n-]c(cc1n2)c(C)c5CCC(=O)[O-])C(CCC(=O)[O-])=C4C)c(C)c3C=C.[Co+2].[H+].[H+] [CoPP, Cobalt protoporphyrin] | protection was not observed | dose-dependently expressed HO-1 | not sufficient to tolerize against EAE | inhibit T1D in NOD mice | duration of HO-1 induction (HO-1 [1]; [4]): at least 72 hours; earliest time HO-1 induction observed (HO-1 [1]; [4]): ≤ 24 h; localisation of HO-1 induction (HO-1 [1]; intradermal injection): restricted to the draining LNs; increase of HO-1 expression in MHC-II+ cells in draining lymph nodes (HO-1 [1]; intradermal injection, RIP-OVAhigh mice): 5.8 fold; MOG-specific CD4+ T-cell proliferation capacity (C57BL/6 mice; vs untreated mice): same proliferation capacity |
| [C-]#[O+] [CO, carbon monoxide] |  |  |  | inhibit T1D in NOD mice |  |
| ovalbumin | protection was not observed |  |  |  |  |
| O=C(O)CCCCCCC1C(=O)NC(=O)N1CCC(O)C1CCCCC1 (stereo not shown) [BW245c] |  |  |  |  | effect on MoDC recruitment (HO-1^+ MoDCs): did not affect |
| protoporphyrin IX containing a ferric iron ion (Heme B) with a chloride ligand [hemin] |  | dose-dependently expressed HO-1 |  |  | HO-1 expression in human MHC-II+CD11clowCD14+ cells (Human PBMC): induced highest HO-1 expression; frequency of HO-1+ cells in draining LN (HO-1 [3]): dose-dependently increased |
| MOG35-55: myelin oligodendrocyte glycoprotein (MOG) 35-55 peptide, cognate antigen in EAE (MEVGWYRSPFSRVVHLYRNGK; UniProt Q61885 63-83, looked up, fragment) |  |  | protection was not observed |  |  |
